Test results published in US20230310376A1, “PROPHYLACTIC AND/OR THERAPEUTIC AGENT FOR IDIOPATHIC PULMONARY FIBROSIS” (ONO PHARMACEUTICAL CO., LTD., priority 2020, published 2023).
“Also recorded” adds a separate entry of the source.

Experiments:
[1] = test system: bleomycin-induced pulmonary fibrosis models produced using male ICR mice; test: Bleomycin-induced pulmonary fibrosis model, male ICR mice; assay type: in vivo, mouse; conditions: bleomycin i.v. 5 days, 0.3, 1, 3 mg/kg oral two times/day to day 28, vs medium-administered group
Procedure: Male ICR mice (Charles River Laboratories Japan, Inc., the week age at the start of experiment: 12-week old) were used. Bleomycin hydrochloride (Nippon Kayaku Co., Ltd.) was dissolved in physiological saline (Otsuka Pharmaceutical Factory, Inc.) to prepare a 3-mg/mL solution. The bleomycin solution thus prepared was administered into a tail vein of each of the mice at a dosage volume of 5 mL/kg at a frequency of 1 time/day for 5 days. For a normal group, physiological saline was administered into a tail vein at a dosage volume of 5 mL/kg at a frequency of 1 time/day for 5 days.
(§1) On the day of first administration of bleomycin, the body weights were measured, and the mice were divided into groups equally in such a manner that a significant difference was not observed in the average values of the body weights among the groups. After the grouping, the administration of a test substance or the medium started, and the administration was performed repeatedly through oral route at a frequency of two times/day from the day of the first administration of bleomycin to day 28. The volume of a solution to be administered was calculated on the basis of the body weight of each of the mice.
On the next day of the day of the final administration, each of the animals was subjected to the opening of the abdominal cavity under the anesthesia with 2% isoflurane, and then the abdomen aorta in each of the mice was dissected to bleed to death. After the bleeding to death, the right lung was excised, and the lung wet weight was measured. Subsequently, the tissues of the right lung were dried with a dry-heat sterilizer, and the dry weight of the right lung was measured. […] The weight of the product after the neutralization was measured to calculate the amount (g) of the sample after the neutralization. […]
A chloramine T reagent (1 mL) was added to an HYP standard solution (2 mL), the resultant mixture was left to stand for 20 minutes at room temperature, then a perchloric acid reagent (1 mL) was added to the solution, and then the resultant mixture was left to stand for 5 minutes at room temperature. A p-dimethylaminobenzaldehyde reagent (1 mL) was added to the solution, then the resultant mixture was warmed to 60° C. for 20 minutes, and then the absorbance of a supernatant produced by the filtration of the mixture through a filter was measured at 557 nm with a spectrophotometer to produce a standard curve.
With respect to each of the HYP content measurement samples (2 mL), the measurement of the absorbance was performed in the same manner as mentioned above, and then the HYP content (μg/mL) was calculated on the basis of the standard curve. […] The HYP amount in the right lung (μg/Lung) was calculated in accordance with the following equation. […]

[2] = target: human LPA1 receptor (Homo sapiens, UniProt Q92633); test: LPA1 agonistic activity measurement in receptor-expressing cell strain; assay type: cell-based; conditions: cell strain stably expressing human LPA1 receptor
Chain of human LPA1 receptor (Q92633 whole entry): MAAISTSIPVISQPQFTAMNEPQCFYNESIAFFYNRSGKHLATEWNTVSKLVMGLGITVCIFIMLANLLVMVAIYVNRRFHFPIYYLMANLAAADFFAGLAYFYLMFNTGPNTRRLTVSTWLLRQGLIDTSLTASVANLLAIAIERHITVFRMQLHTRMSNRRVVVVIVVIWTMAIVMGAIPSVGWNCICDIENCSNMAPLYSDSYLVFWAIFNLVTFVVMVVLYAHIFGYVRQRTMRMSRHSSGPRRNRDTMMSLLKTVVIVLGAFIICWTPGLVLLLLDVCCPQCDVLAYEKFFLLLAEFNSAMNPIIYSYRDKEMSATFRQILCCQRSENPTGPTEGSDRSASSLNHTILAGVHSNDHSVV

[3] = test system: bleomycin-induced pulmonary fibrosis models produced using LPA3 receptor-deficient C57BL/6N mice; test: Bleomycin-induced pulmonary fibrosis model, LPA3 receptor-deficient C57BL/6N mice; assay type: in vivo, mouse; conditions: transpulmonary bleomycin, 3 mg/kg oral two times/day to day 21, vs medium-administered group
Procedure: (§2) Wild-type and LPA3 receptor-deficient male C57BL/6N mice (Oriental BioService, Inc., the week age at the start of the experiment: 13-week old) were used. Bleomycin hydrochloride (Nippon Kayaku Co., Ltd.) was dissolved in physiological saline (Otsuka Pharmaceutical Factory, Inc.) to prepare a 0.41-mg/mL solution. The bleomycin solution thus prepared was administered to each of the mice at a dosage volume of 75 μL through a transpulmonary route. For a normal group, physiological saline was administered at a dosage volume of 75 μL through a transpulmonary route.
as §1, with “through an” for “through”, “21.” for “28.”
On the next day of the day of the final administration, each of the animals was subjected to the opening of the abdominal cavity under the anesthesia with a three types of mixed anesthetic agent (the intraperitoneal administration of 0.3 mg/10 mL/kg of medetomidine, 4 mg/10 mL/kg of midazolam, and 5 mg/10 mL/kg of butorphanol), and then the abdomen aorta in each of the animals was dissected to bleed to death. After the bleeding to death, the lung was excised, and the lung wet weight was measured. Subsequently, the lung was frozen. The frozen lung was homogenized, and then 11.2-N hydrochloric acid (200 μL) was added to a homogenate solution to hydrolyze the homogenate solution at about 120° C. for 34 hours. The content of hydroxyproline in the solution after the hydrolysis was measured using a hydroxyproline quantification kit (BioVision, Inc.).

[4] = target: LPA2 receptor (Homo sapiens, UniProt Q9HBW0); test: LPA2 agonistic activity measurement in receptor-expressing cell strain; assay type: cell-based; conditions: cell strain stably expressing LPA2 receptor
Chain of LPA2 receptor (Q9HBW0 whole entry): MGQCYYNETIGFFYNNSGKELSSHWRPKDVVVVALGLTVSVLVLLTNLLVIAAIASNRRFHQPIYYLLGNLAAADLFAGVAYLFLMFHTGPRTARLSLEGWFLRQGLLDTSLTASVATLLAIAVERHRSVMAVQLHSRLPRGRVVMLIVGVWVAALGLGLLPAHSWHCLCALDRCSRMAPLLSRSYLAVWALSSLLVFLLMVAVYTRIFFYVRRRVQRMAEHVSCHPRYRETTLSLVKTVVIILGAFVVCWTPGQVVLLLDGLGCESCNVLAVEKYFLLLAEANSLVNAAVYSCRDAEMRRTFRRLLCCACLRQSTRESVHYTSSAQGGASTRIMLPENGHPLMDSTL

[5] = test system: bleomycin-induced pulmonary fibrosis model, wild-type male C57BL/6N mice; test: Bleomycin-induced pulmonary fibrosis model, wild-type C57BL/6N mice; assay type: in vivo, mouse; conditions: transpulmonary bleomycin, 3 mg/kg oral two times/day to day 21, vs medium-administered group
Procedure: as §2
as §1, with “through an” for “through”, “21.” for “28.”, “mice. […]” for “mice.”

EC50 [2]: > 10 µM
EC50 [4]: > 10 µM
Compound: Cc1ccc(Cn2c(C(=O)O)c(CNC3CCC3)c3ccccc32)cc1 [Compound I, 3-[(Cyclobutylamino)methyl]-1-(4-methylbenzyl)-1H-indol-2-carboxylic acid]
weight of the right lung ([1]; FIG. 1): significantly prevented the increase; also recorded: prevents the increase in the weight of the lung
weight of the right lung ([1]; FIG. 1, listed as Example 1): lower compared with those in the medium-administered group
HYP (hydroxyproline) amount in the right lung ([1]; FIG. 2): significantly prevented the increase; also recorded: prevents the increase in the amount of hydroxyproline
HYP (hydroxyproline) amount in the right lung ([1]; FIG. 2, listed as Example 1): lower compared with those in the medium-administered group
lung weight ([3]; FIG. 3, 3 mg/kg): does not prevent the increase in the weight of the lung
lung weight ([3]; FIG. 3, listed as Example 1, 3 mg/kg): did not show significant difference compared with those in the medium-administered group
HYP amount in the lung ([3]; FIG. 4, 3 mg/kg): does not prevent the increase in the amount of hydroxyproline
HYP amount in the lung ([3]; FIG. 4, listed as Example 1, 3 mg/kg): did not show significant difference compared with those in the medium-administered group
lung weight ([5]; FIG. 3): smaller compared with those in the medium-administered group
HYP amount in the lung ([5]; FIG. 4): smaller compared with those in the medium-administered group
